The values below come from ChEMBL document CHEMBL5291721, “A preclinical secondary pharmacology resource illuminates target-adverse drug reaction associations of marketed drugs” (Nat Commun, 2023).

Targets include D(3) dopamine receptor (Homo sapiens, UniProt P35462); Histamine H3 receptor (Homo sapiens, UniProt Q9Y5N1); D(1A) dopamine receptor (Homo sapiens, UniProt P21728).
The target of another experiment is T1, Thromboxane A2 receptor (Homo sapiens, UniProt P21731).
T1 sequence (P21731 whole entry): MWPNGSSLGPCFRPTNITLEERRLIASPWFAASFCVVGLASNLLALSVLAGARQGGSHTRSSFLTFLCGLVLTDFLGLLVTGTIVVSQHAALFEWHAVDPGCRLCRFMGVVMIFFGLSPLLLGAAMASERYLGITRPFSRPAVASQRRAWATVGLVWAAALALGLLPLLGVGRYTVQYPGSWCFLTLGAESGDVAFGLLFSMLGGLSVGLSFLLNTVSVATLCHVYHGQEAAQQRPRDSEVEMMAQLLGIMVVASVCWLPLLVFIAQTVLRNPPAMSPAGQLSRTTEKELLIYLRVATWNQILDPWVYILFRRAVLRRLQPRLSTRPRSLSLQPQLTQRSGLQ
In kind it is functional, cell-based.

Another experiment concerns the target T2, Adenosine receptor A3 (Homo sapiens, UniProt P0DMS8).
T2 sequence (P0DMS8 whole entry): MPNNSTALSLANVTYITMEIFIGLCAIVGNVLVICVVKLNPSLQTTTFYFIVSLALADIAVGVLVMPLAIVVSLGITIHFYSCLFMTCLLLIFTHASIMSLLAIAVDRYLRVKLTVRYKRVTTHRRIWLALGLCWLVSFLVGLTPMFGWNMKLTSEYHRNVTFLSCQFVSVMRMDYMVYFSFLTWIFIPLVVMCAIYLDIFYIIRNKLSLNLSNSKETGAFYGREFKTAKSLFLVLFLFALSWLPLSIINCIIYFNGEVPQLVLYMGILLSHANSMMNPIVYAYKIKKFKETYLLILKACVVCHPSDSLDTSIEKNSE

For the next experiment, the target named is T3, Progesterone receptor (Homo sapiens, UniProt P06401).
T3 sequence (P06401 whole entry): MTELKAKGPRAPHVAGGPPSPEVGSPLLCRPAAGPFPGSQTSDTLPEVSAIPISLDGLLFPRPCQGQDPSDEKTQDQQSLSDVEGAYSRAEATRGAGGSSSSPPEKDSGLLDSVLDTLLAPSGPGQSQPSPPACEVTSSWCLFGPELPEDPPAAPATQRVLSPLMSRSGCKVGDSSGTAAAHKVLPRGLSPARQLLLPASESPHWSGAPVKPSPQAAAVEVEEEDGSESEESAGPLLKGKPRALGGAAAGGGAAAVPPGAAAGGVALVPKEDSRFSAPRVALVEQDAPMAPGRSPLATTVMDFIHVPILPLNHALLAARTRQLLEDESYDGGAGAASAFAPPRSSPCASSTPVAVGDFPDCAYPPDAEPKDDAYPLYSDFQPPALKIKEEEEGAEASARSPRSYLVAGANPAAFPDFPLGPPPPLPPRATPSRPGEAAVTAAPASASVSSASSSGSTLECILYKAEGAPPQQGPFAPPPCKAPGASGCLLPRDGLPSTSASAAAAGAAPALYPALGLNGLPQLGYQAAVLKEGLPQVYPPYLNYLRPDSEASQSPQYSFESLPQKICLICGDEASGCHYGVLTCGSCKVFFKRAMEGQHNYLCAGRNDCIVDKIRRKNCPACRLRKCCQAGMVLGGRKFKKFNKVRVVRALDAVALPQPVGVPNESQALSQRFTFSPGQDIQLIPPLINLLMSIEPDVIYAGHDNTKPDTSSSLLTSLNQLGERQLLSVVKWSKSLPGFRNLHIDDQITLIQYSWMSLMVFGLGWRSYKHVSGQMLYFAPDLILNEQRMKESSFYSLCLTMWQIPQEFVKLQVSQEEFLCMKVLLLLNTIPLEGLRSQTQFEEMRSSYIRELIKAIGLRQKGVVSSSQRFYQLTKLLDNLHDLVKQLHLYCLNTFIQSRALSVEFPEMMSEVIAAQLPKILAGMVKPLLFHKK

In experiment [1] the target is Voltage-gated inwardly rectifying potassium channel KCNH2 (Homo sapiens, UniProt Q12809). In kind it is functional. The following applies: read-out: AC50.
For experiment [2], the target named is Sodium-dependent serotonin transporter (Homo sapiens, UniProt P31645).
The target of experiment [3] is T4, Amine oxidase [flavin-containing] A (Homo sapiens, UniProt P21397).
T4 sequence (P21397 whole entry): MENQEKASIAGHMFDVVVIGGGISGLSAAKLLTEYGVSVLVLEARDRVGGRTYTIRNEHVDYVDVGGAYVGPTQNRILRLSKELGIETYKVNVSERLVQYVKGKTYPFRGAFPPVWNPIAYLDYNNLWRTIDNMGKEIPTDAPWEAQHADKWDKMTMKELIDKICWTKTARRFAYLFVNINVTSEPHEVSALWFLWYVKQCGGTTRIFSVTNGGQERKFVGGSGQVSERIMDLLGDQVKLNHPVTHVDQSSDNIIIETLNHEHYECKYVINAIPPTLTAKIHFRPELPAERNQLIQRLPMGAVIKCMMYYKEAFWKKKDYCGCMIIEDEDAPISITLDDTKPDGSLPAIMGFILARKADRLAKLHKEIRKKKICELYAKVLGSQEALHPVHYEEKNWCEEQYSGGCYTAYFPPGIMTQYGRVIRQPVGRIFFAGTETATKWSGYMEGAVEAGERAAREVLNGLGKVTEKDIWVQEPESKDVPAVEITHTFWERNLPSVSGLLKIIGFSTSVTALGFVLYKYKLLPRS
In kind it is functional.

The target of experiment [4] is T5, Alpha-1A adrenergic receptor (Homo sapiens, UniProt P35348).
T5 sequence (P35348 whole entry): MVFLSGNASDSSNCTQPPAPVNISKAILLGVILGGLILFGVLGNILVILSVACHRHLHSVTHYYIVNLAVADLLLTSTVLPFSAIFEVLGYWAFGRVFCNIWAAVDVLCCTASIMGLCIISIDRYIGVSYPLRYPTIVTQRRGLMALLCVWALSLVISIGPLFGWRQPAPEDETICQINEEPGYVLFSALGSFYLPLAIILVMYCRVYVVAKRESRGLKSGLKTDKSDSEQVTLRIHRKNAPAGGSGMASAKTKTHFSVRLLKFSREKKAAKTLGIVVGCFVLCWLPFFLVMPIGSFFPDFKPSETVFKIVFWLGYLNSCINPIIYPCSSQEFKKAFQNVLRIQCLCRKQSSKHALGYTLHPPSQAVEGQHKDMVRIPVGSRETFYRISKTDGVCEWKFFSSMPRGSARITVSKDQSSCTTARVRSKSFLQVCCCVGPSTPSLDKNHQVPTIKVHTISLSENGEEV
In kind it is functional, cell-based.

In the next experiment the target is Prothrombin (Homo sapiens, UniProt P00734). Type of experiment: functional.
Further: assay procedure not described here.

Chain of Histamine H3 receptor (Q9Y5N1 whole entry): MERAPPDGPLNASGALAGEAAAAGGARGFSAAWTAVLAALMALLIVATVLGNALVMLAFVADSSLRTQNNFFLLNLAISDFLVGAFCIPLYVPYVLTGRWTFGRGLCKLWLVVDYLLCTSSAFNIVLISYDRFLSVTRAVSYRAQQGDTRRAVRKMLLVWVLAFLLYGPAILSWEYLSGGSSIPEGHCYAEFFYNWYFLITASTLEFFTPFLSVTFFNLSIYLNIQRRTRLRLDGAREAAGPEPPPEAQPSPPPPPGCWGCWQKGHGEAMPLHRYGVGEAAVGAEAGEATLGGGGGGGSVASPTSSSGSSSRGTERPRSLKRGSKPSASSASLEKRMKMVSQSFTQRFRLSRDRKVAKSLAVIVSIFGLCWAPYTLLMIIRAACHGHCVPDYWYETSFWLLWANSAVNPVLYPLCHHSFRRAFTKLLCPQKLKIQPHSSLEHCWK
Chain of Sodium-dependent serotonin transporter (P31645 whole entry): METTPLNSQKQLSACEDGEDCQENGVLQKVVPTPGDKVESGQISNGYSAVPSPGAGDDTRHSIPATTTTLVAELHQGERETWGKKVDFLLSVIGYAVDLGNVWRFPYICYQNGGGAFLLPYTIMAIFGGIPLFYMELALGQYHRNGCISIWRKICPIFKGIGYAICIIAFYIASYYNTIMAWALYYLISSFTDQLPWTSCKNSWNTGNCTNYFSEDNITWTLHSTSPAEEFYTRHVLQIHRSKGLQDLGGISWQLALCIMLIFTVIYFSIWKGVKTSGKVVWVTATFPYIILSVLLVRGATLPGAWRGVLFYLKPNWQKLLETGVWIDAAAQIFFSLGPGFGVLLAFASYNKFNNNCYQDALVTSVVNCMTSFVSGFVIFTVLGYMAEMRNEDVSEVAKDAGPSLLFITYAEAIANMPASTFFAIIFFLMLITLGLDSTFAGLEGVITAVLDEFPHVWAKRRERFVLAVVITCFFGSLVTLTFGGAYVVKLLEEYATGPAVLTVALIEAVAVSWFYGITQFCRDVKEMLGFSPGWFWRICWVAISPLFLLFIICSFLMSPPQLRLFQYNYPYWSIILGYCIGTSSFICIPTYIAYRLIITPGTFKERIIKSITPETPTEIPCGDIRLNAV
Chain of D(3) dopamine receptor (P35462 whole entry): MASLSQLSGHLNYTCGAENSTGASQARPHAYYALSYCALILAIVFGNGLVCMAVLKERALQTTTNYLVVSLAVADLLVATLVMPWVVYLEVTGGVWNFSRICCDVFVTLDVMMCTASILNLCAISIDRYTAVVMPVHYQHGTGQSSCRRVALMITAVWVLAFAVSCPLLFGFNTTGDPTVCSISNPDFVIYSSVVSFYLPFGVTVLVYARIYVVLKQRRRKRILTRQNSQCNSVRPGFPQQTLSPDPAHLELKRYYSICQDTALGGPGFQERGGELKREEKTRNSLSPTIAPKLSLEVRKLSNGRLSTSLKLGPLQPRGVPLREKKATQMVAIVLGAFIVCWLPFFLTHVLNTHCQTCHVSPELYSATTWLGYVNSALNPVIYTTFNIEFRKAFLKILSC
Chain of D(1A) dopamine receptor (P21728 whole entry): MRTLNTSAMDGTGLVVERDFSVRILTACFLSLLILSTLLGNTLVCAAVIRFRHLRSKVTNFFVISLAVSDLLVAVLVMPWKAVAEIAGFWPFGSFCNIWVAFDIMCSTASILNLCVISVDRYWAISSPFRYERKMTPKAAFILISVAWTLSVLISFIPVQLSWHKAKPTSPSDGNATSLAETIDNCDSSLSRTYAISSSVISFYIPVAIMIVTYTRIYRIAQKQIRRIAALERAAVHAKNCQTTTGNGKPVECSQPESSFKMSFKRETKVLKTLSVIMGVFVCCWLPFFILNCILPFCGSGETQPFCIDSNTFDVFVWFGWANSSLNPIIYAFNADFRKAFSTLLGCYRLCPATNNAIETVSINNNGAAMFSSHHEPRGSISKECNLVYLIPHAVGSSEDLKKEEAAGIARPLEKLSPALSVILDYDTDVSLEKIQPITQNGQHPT
Chain of Voltage-gated inwardly rectifying potassium channel KCNH2 (Q12809 whole entry): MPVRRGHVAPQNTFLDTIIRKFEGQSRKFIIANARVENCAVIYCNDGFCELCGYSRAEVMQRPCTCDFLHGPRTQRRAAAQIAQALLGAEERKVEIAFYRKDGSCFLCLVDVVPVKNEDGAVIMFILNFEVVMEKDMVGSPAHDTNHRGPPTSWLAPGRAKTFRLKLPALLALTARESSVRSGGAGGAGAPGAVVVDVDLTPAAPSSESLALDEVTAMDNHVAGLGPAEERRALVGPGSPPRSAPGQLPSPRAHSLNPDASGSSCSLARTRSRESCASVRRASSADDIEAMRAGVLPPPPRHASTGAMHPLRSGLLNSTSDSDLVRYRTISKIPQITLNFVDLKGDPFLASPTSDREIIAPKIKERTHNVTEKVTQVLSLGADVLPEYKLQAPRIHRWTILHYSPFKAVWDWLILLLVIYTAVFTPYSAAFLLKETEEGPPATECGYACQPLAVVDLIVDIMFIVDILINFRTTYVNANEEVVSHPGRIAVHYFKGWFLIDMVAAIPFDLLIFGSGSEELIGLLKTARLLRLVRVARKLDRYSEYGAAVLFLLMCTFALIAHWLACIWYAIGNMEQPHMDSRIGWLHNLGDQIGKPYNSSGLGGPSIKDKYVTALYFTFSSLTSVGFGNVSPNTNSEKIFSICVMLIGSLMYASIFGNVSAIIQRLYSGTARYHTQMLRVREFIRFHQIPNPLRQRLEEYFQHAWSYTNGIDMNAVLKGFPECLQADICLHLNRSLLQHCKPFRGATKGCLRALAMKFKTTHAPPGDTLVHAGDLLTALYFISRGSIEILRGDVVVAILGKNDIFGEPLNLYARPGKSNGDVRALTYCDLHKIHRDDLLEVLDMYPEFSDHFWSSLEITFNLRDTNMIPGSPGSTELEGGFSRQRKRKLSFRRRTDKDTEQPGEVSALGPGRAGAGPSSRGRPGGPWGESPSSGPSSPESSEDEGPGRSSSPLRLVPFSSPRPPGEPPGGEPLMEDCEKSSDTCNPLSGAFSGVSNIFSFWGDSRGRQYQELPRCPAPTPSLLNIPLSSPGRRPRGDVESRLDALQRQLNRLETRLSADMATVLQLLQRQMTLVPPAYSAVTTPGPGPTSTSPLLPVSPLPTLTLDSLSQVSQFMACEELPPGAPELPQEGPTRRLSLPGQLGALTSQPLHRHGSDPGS

In the case of `COc1ccc2c(c1)OC(C)(C)C(c1ccccc1)C2c1ccc(OCCN2CCCC2)cc1` (stereo unspecified) [ORMELOXIFENE], the AC50 – broadly, the concentration giving half of the maximal activity seen – is more than 30 µM on Thromboxane A2 receptor; 3.66 µM on Adenosine receptor A3; 3.57 µM at Progesterone receptor; 2.7 µM in experiment [1]; 0.205 µM on D(3) dopamine receptor; 13.2 µM in experiment [2]. The AC50 at Histamine H3 receptor is 0.785 µM; in [3], more than 30 µM; in experiment [4] it was 13.4 µM; at Prothrombin, more than 30 µM; at D(1A) dopamine receptor it was 6.98 µM.
As for `Cc1nc(-c2ccc(OCC(C)C)c(C#N)c2)sc1C(=O)O` [FEBUXOSTAT], the AC50 on Thromboxane A2 receptor was more than 30 µM; on Adenosine receptor A3, more than 30 µM; on Progesterone receptor it was 16.1 µM; in [1] it was more than 30 µM; at D(3) dopamine receptor, more than 30 µM; in experiment [2], more than 30 µM. The AC50 (on Histamine H3 receptor; in experiment [3]; in experiment [4]; on Prothrombin; on D(1A) dopamine receptor) was more than 30 µM throughout.
In the case of `COc1ccc(-c2cc(=O)c3c(O)cc(O[C@@H]4O[C@H](CO[C@@H]5O[C@@H](C)[C@H](O)[C@@H](O)[C@H]5O)[C@@H](O)[C@H](O)[C@H]4O)cc3o2)cc1O` [DIOSMIN], the AC50 (at Thromboxane A2 receptor; on Adenosine receptor A3; on Progesterone receptor; in experiment [1]; on D(3) dopamine receptor; in [2]) was more than 30 µM each time. Also, the AC50 (on Histamine H3 receptor; in experiment [3]; in experiment [4]; on Prothrombin; on D(1A) dopamine receptor) was more than 30 µM in each case.
On to `CCOc1ccc(/C=C2\NCCc3cc(OCC)c(OCC)cc32)cc1OCC` [DROTAVERINE], for which the AC50 at Thromboxane A2 receptor was more than 30 µM; on Adenosine receptor A3 it was 26.4 µM; on Progesterone receptor, more than 30 µM; in experiment [1], 2.9 µM; at D(3) dopamine receptor, more than 30 µM; in experiment [2] it was 3 µM. In addition, the AC50 (on Histamine H3 receptor; in [3]; in experiment [4]; on Prothrombin; on D(1A) dopamine receptor) was more than 30 µM throughout.
With `CS(=O)(=O)Nc1cc2occ(NC=O)c(=O)c2cc1Oc1ccccc1` [IGURATIMOD], the AC50 on Thromboxane A2 receptor is more than 30 µM; at Adenosine receptor A3 it was 1.44 µM; on Progesterone receptor, more than 30 µM; in [1] it was more than 30 µM; on D(3) dopamine receptor, more than 30 µM; in experiment [2], more than 30 µM. Besides, the concentration at half-maximal activity (AC50) (at Histamine H3 receptor; in experiment [3]; in experiment [4]; at Prothrombin; on D(1A) dopamine receptor) was more than 30 µM throughout.
Consider `CCO[C@@H](Cc1ccc(OCCn2c(C)ccc2-c2ccc(SC)cc2)cc1)C(=O)O` [SAROGLITAZAR], for which the half-maximal activity concentration (AC50) on Thromboxane A2 receptor is 16.4 µM; at Adenosine receptor A3, 14.9 µM; at Progesterone receptor, 8.57 µM; in [1] it was more than 30 µM; on D(3) dopamine receptor, 22.2 µM; in experiment [2] it was more than 30 µM. The AC50 at Histamine H3 receptor was more than 30 µM; in [3], more than 30 µM; in [4] it was 15 µM; on Prothrombin, more than 30 µM; at D(1A) dopamine receptor it was more than 30 µM.
For `COc1cc2c(cc1OC)[C@H]1C[C@@H](OC(=O)[C@@H](N)C(C)C)[C@H](CC(C)C)CN1CC2` [VALBENAZINE], the AC50 (at Thromboxane A2 receptor; on Adenosine receptor A3; at Progesterone receptor; on D(3) dopamine receptor; in [2]; on Histamine H3 receptor) was more than 30 µM in each case. Also, the AC50 (in experiment [3]; in experiment [4]; at Prothrombin; at D(1A) dopamine receptor) was more than 30 µM throughout.
